# Results: ChEMBL document CHEMBL2331417, “Kinetic and anion inhibition studies of a β-carbonic anhydrase (FbiCA 1) from the C4 plant Flaveria bidentis” (Bioorg Med Chem Lett, 2013)
# Experiment: Inhibition of Helicobacter pylori beta-carbonic anhydrase preincubated for 15 mins by stopped flow CO2 hydration assay
row,SMILES,Ki [µM]
1,S=C(S)S [SODIUM CARBONOTRITHIOATE],210
2,N=C=S [SODIUM ISOTHIOCYANATE],680
3,S [SODIUM HYDROSULFIDE],580
4,[F-].[Na+] [SODIUM FLUORIDE],670
5,[N-]=[N+]=[N-] [SODIUM AZIDE],800
6,O=S(=O)([O-])[O-].[Na+].[Na+] [SODIUM SULFATE ANHYDROUS],570
7,N=C=[Se] [SODIUM ISOSELENOCYANATE],970
8,[Br-].[Na+] [SODIUM BROMIDE],380
9,[O-][Cl+3]([O-])([O-])O [SODIUM PERCHLORATE],6500
10,O=[Te](=O)(O)O [SODIUM TELLURATE],450
11,O=[Se](=O)(O)O [SODIUM SELENATE],650
12,O=BOB(O)OB(O)OB=O [SODIUM TETRABORATE],680
13,O=C([O-])[O-].[Na+].[Na+] [SODIUM CARBONATE],420
14,[Cl-].[Na+] [SODIUM CHLORIDE],560
15,O=S(=O)(O)ONOS(=O)(=O)O [SODIUM IMINODISULFATE],700
16,O=P(O)(O)OP(=O)(O)O [SODIUM PYROPHOSPHATE],750
17,CCN(CC)C(=S)S [DITIOCARB SODIUM],7.4
18,O=S(=O)(O)OOS(=O)(=O)O [SODIUM PERSULFATE],930
19,NS(N)(=O)=O [SULFAMIDE],72
20,[I-].[Na+] [SODIUM IODIDE],630
21,O=S([O-])O.[Na+] [SODIUM BISULFITE],630
22,OB(O)c1ccccc1 [PHENYLBORONIC ACID],73
23,O=NO [SODIUM NITRITE],670
24,F[B-](F)(F)F.[Na+] [SODIUM TETRAFLUOROBORATE],> 200000
25,O=[N+]([O-])[O-].[Na+] [SODIUM NITRATE],780
26,NS(=O)(=O)O [SULFAMATE],94

# Experiment: Inhibition of Flaveria bidentis beta-carbonic anhydrase-1 preincubated for 15 mins by stopped flow CO2 hydration assay
row,SMILES,Ki [µM]
1,S=C(S)S [SODIUM CARBONOTRITHIOATE],60
2,N=C=S [SODIUM ISOTHIOCYANATE],830
3,S [SODIUM HYDROSULFIDE],860
4,[F-].[Na+] [SODIUM FLUORIDE],710
5,[N-]=[N+]=[N-] [SODIUM AZIDE],460
6,O=S(=O)([O-])[O-].[Na+].[Na+] [SODIUM SULFATE ANHYDROUS],620
7,N=C=[Se] [SODIUM ISOSELENOCYANATE],880
8,[Br-].[Na+] [SODIUM BROMIDE],670
9,[O-][Cl+3]([O-])([O-])O [SODIUM PERCHLORATE],> 200000
10,O=[Te](=O)(O)O [SODIUM TELLURATE],900
12,O=[Se](=O)(O)O [SODIUM SELENATE],24500
13,O=BOB(O)OB(O)OB=O [SODIUM TETRABORATE],860
14,O=C([O-])[O-].[Na+].[Na+] [SODIUM CARBONATE],840
15,[Cl-].[Na+] [SODIUM CHLORIDE],740
16,O=C([O-])O.[Na+] [SODIUM BICARBONATE],660
17,O=S(=O)(O)ONOS(=O)(=O)O [SODIUM IMINODISULFATE],50900
18,O=P(O)(O)OP(=O)(O)O [SODIUM PYROPHOSPHATE],830
19,CCN(CC)C(=S)S [DITIOCARB SODIUM],8
20,O=S(=O)(O)OOS(=O)(=O)O [SODIUM PERSULFATE],870
21,NS(N)(=O)=O [SULFAMIDE],4
22,[I-].[Na+] [SODIUM IODIDE],710
23,O=S([O-])O.[Na+] [SODIUM BISULFITE],55300
24,OB(O)c1ccccc1 [PHENYLBORONIC ACID],8
25,O=NO [SODIUM NITRITE],570
26,O=[As](O)(O)c1ccccc1 [PHENYLARSONIC ACID],6
27,F[B-](F)(F)F.[Na+] [SODIUM TETRAFLUOROBORATE],> 200000
28,O=[N+]([O-])[O-].[Na+] [SODIUM NITRATE],780
29,NS(=O)(=O)O [SULFAMATE],5
